Reference: ChEMBL document CHEMBL3608248, “Dimeric Macrocyclic Antagonists of Inhibitor of Apoptosis Proteins for the Treatment of Cancer” (ACS Med Chem Lett, 2015)
≈ marks a conversion by molar mass, not a printed value. Calls of active or inactive are those of the source. The calls are words filed in the database; no cut-off is given here.

Experiments:
cells = conditions: Homo sapiens, A875, 72 h
in vivo [1] = conditions: Balb/C, mouse, iv, 1 mg/kg
in vivo [2] = conditions: Balb/C, mouse, iv, 1 mg/kg; remark: listed apart in the source
in vivo [3] = conditions: Balb/C, mouse, iv, 1 mg/kg; remark: listed apart in the source
in vivo [4] = conditions: Balb/C, mouse, iv, 1 mg/kg; remark: listed apart in the source
Mus musculus = species: Mus musculus; conditions: in vivo, iv, 1 mg/kg, 7 h
physchem = conditions: buffer, pH 7.4
A875 = conditions: Homo sapiens, 50 mg/kg
HCT-116 = experiment: cells; conditions: Homo sapiens
HCT-116/VM46 = experiment: cells; conditions: Homo sapiens
in vivo [5] = conditions: rat, iv, 1 mg/kg
in vivo [6] = conditions: rat, iv, 1 mg/kg; remark: listed apart in the source
in vivo [7] = conditions: rat, iv, 1 mg/kg; remark: listed apart in the source
in vivo [8] = conditions: dog, iv, 0.3 mg/kg
in vivo [9] = conditions: dog, iv, 0.3 mg/kg; remark: listed apart in the source
in vivo [10] = conditions: dog, iv, 0.3 mg/kg; remark: listed apart in the source
in vitro [11] = conditions: rat, liver microsomes
in vitro [12] = conditions: mouse, liver microsomes
in vitro [13] = conditions: dog, liver microsomes
in vitro [14] = conditions: human, liver microsomes
hERG = hERG (Homo sapiens, UniProt Q12809); experiment: in vitro
Chain of hERG (Q12809 whole entry): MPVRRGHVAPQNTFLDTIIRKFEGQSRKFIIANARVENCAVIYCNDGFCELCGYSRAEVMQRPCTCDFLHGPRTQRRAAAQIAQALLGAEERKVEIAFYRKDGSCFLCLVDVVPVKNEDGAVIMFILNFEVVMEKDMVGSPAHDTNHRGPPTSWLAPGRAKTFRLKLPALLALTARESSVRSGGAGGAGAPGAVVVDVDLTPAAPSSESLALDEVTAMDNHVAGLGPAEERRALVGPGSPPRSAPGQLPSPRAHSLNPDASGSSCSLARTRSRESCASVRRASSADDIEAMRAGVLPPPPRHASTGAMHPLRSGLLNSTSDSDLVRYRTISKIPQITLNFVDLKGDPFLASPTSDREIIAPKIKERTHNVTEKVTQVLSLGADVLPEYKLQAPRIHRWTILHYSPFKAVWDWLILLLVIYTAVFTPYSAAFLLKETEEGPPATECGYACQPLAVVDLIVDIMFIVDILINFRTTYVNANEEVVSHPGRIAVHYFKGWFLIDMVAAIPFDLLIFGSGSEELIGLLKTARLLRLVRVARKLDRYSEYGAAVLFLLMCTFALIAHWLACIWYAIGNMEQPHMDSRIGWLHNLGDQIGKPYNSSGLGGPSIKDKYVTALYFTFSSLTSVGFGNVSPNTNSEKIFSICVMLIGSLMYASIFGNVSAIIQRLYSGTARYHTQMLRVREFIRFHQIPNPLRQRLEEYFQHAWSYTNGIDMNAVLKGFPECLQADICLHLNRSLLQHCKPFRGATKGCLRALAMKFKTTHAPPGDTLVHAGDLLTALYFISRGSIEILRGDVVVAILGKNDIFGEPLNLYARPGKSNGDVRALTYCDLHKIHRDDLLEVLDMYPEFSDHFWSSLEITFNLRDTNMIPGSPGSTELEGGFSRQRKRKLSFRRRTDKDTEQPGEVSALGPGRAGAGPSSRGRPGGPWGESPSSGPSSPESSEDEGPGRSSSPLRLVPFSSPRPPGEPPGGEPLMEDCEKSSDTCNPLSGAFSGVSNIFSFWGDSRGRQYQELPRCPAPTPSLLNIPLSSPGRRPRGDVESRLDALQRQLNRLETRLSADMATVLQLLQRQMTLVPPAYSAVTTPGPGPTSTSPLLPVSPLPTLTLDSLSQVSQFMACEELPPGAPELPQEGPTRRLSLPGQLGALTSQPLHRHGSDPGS

in vitro [15] = conditions: mouse, plasma
in vitro [16] = conditions: rat, plasma
in vitro [17] = conditions: dog, plasma
in vitro [18] = conditions: human, plasma
animal or person [19] = conditions: Homo sapiens, A875, ip, 72 h, read-out: TGI
animal or person [20] = conditions: Homo sapiens, A875, ip, 72 h, read-out: TGI; remark: listed apart in the source
animal or person [21] = conditions: Homo sapiens, A875, ip, read-out: TGI

Question: With `C=CCOc1ccc(C[C@H](NC(=O)[C@H](Cc2ccc3ccccc3c2)NC(=O)[C@@H]2C[C@H](n3cc(COc4ccc(C[C@H](NC(=O)[C@H](Cc5ccc6ccccc6c5)NC(=O)[C@@H]5C[C@H](CC=C)CN5C(=O)[C@@H](NC(=O)[C@H](C)NC)C(C)(C)C)NS(=O)(=O)C5CC5)cc4)nn3)CN2C(=O)[C@@H](NC(=O)[C@H](C)NC)C(C)(C)C)C(=O)O)cc1` as the compound, how does the IC50 (cells) read?
Answer: > 1000 nM

Question: For `CN[C@@H](C)C(=O)N[C@H](C(=O)N1C[C@H]2C/C=C/COc3ccc(cc3)C[C@@H](C(=O)NS(=O)(=O)C3CC3)NC(=O)[C@H](Cc3ccc4ccccc4c3)NC(=O)[C@@H]3C[C@H](C/C=C/COc4ccc(cc4)C[C@@H](C(=O)O)NC(=O)[C@H](Cc4ccc5ccccc5c4)NC(=O)[C@@H]1C2)CN3C(=O)[C@@H](NC(=O)[C@H](C)NC)C(C)(C)C)C(C)(C)C`, which IC50 (cells) is on record?
Answer: 23 nM

Question: For `CN[C@@H](C)C(=O)N[C@H](C(=O)N1C[C@@H]2C[C@H]1C(=O)N[C@@H](Cc1ccc3ccccc3c1)C(=O)N[C@H](NS(=O)(=O)C1CC1)Cc1ccc(cc1)OCc1cn(nn1)[C@H]1C[C@@H](C(=O)N[C@@H](Cc3ccc4ccccc4c3)C(=O)N[C@H](NS(=O)(=O)C3CC3)Cc3ccc(cc3)OCc3cn2nn3)N(C(=O)[C@@H](NC(=O)[C@H](C)NC)C(C)(C)C)C1)C(C)(C)C`, which IC50 (cells) is on record?
Answer: 79 nM

Question: What about the half-life (in vivo [1]) of the same compound?
Answer: 54 min

Question: What about the clearance (in vivo [2]) of the same compound?
Answer: 3.6 mL/min/kg

Question: And the Vd (in vivo [3])?
Answer: 0.3 L/kg

Question: And the AUC(0-t) at 7 h (in vivo [4])?
Answer: 2.35 µM·h

Question: For `CN[C@@H](C)C(=O)N[C@H](C(=O)N1C[C@@H]2C[C@H]1C(=O)N[C@@H](Cc1ccc3ccccc3c1)C(=O)N[C@H](C(=O)OC)Cc1ccc(cc1)OCc1cn(nn1)[C@H]1C[C@@H](C(=O)N[C@@H](Cc3ccc4ccccc4c3)C(=O)N[C@H](C(=O)OC)Cc3ccc(cc3)OCc3cn2nn3)N(C(=O)[C@@H](NC(=O)[C@H](C)NC)C(C)(C)C)C1)C(C)(C)C`, which IC50 (cells) is on record?
Answer: 690 nM

Question: With `CN[C@@H](C)C(=O)N[C@H](C(=O)N1C[C@@H]2C[C@H]1C(=O)N[C@@H](Cc1ccc3ccccc3c1)C(=O)N[C@H](C(=O)O)Cc1ccc(cc1)OCc1cn(nn1)[C@H]1C[C@@H](C(=O)N[C@@H](Cc3ccc4ccccc4c3)C(=O)N[C@H](C(=O)O)Cc3ccc(cc3)OCc3cn2nn3)N(C(=O)[C@@H](NC(=O)[C@H](C)NC)C(C)(C)C)C1)C(C)(C)C` as the compound, how does the AUC (Mus musculus) read?
Answer: 1550 nM·h

Question: And the IC50 (cells)?
Answer: 73 nM

Question: And the Vd (in vivo [3])?
Answer: 0.3 L/kg

Question: And the solubility (physchem)?
Answer: 130 µg/mL (≈ 86.3 µM)

Question: Which results are given for `CN[C@@H](C)C(=O)N[C@H](C(=O)N1C[C@H]2CCCCOc3ccc(cc3)C[C@@H](C(=O)NS(=O)(=O)C3CC3)NC(=O)[C@H](Cc3ccc4ccccc4c3)NC(=O)[C@@H]3C[C@H](CCCCOc4ccc(cc4)C[C@@H](C(=O)O)NC(=O)[C@H](Cc4ccc5ccccc5c4)NC(=O)[C@@H]1C2)CN3C(=O)[C@@H](NC(=O)[C@H](C)NC)C(C)(C)C)C(C)(C)C`?
Answer: IC50 (cells): 15 nM; solubility (physchem): < 10 µg/mL

Question: For `CN[C@@H](C)C(=O)N[C@H](C(=O)N1C[C@H]2C/C=C/COc3ccc(cc3)C[C@@H](C(=O)O)NC(=O)[C@H](Cc3ccc4ccccc4c3)NC(=O)[C@@H]3C[C@@H](CN3C(=O)[C@@H](NC(=O)[C@H](C)NC)C(C)(C)C)n3cc(nn3)COc3ccc(cc3)C[C@@H](NS(=O)(=O)C3CC3)NC(=O)[C@H](Cc3ccc4ccccc4c3)NC(=O)[C@@H]1C2)C(C)(C)C`, which IC50 (cells) is on record?
Answer: 51 nM

Question: For `CN[C@@H](C)C(=O)N[C@H](C(=O)N1C[C@@H]2C[C@H]1C(=O)N[C@@H](Cc1ccc3ccccc3c1)C(=O)N[C@H](C(=O)O)Cc1ccc(cc1)OCc1cn(nn1)[C@H]1C[C@@H](C(=O)N[C@@H](Cc3ccc4ccccc4c3)C(=O)N[C@H](c3nnn[nH]3)Cc3ccc(cc3)OCc3cn2nn3)N(C(=O)[C@@H](NC(=O)[C@H](C)NC)C(C)(C)C)C1)C(C)(C)C`, which IC50 (cells) is on record?
Answer: 83 nM

Question: With `CN[C@@H](C)C(=O)N[C@H](C(=O)N1C[C@@H]2C[C@H]1C(=O)N[C@@H](Cc1ccc3ccccc3c1)C(=O)N[C@H](NS(=O)(=O)C1CC1)Cc1ccc(cc1)OCc1cn(nn1)[C@H]1C[C@@H](C(=O)N[C@@H](Cc3ccc4ccccc4c3)C(=O)N[C@H](C(=O)O)Cc3ccc(cc3)OCc3cn2nn3)N(C(=O)[C@@H](NC(=O)[C@H](C)NC)C(C)(C)C)C1)C(C)(C)C` as the compound, how does the IC50 (cells) read?
Answer: 39 nM

Question: What about the half-life (in vivo [1]) of the same compound?
Answer: 60 min

Question: And the clearance (in vivo [2])?
Answer: 1.5 mL/min/kg

Question: And the Vd (in vivo [3])?
Answer: 0.1 L/kg

Question: And the AUC(0-t) at 7 h (in vivo [4])?
Answer: 5.85 µM·h

Question: For `CN[C@@H](C)C(=O)N[C@H](C(=O)N1C[C@@H]2C[C@H]1C(=O)N[C@@H](Cc1ccc3ccccc3c1)C(=O)N[C@H](C(=O)O)Cc1ccc(cc1)OCc1cn(nn1)[C@H]1C[C@@H](C(=O)N[C@@H](Cc3ccc4ccccc4c3)C(=O)N[C@H](C(=O)OC)Cc3ccc(cc3)OCc3cn2nn3)N(C(=O)[C@@H](NC(=O)[C@H](C)NC)C(C)(C)C)C1)C(C)(C)C`, which IC50 (cells) is on record?
Answer: 310 nM

Question: Which TGI (A875) does the source give for `CN[C@@H](C)C(=O)N[C@H](C(=O)N1C[C@H]2CCCCOc3ccc(cc3)C[C@@H](C(=O)O)NC(=O)[C@H](Cc3ccc4ccccc4c3)NC(=O)[C@@H]3C[C@@H](CN3C(=O)[C@@H](NC(=O)[C@H](C)NC)C(C)(C)C)n3cc(nn3)COc3ccc(cc3)C[C@@H](NS(=O)(=O)C3CC3)NC(=O)[C@H](Cc3ccc4ccccc4c3)NC(=O)[C@@H]1C2)C(C)(C)C` here?
Answer: Active

Question: And the IC50 (cells)?
Answer: 19 nM

Question: What about the IC50 (HCT-116) of the same compound?
Answer: 92 nM

Question: What about the IC50 (HCT-116/VM46) of the same compound?
Answer: 11 nM

Question: And the half-life (in vivo [1])?
Answer: 102 min

Question: And the clearance (in vivo [2])?
Answer: 2.1 mL/min/kg

Question: And the AUC(0-t) at 7 h (in vivo [4])?
Answer: 4.49 µM·h

Question: And the half-life (in vivo [5])?
Answer: 60 min

Question: What about the clearance (in vivo [6]) of the same compound?
Answer: 6.2 mL/min/kg

Question: And the AUC(0-t) at 7 h (in vivo [7])?
Answer: 1.71 µM·h

Question: And the half-life (in vivo [8])?
Answer: 282 min

Question: And the clearance (in vivo [9])?
Answer: 0.4 mL/min/kg

Question: And the AUC(0-t) at 7 h (in vivo [10])?
Answer: 8.43 µM·h

Question: What about the solubility (physchem) of the same compound?
Answer: 50 µg/mL (≈ 32.1 µM)

Question: And the half-life (in vitro [11])?
Answer: 84 min

Question: What about the half-life (in vitro [12]) of the same compound?
Answer: > 120 min

Question: What about the half-life (in vitro [13]) of the same compound?
Answer: > 120 min

Question: And the half-life (in vitro [14])?
Answer: > 120 min

Question: And the inhibition at 30 um (hERG)?
Answer: 9%

Question: What about the fraction unbound (in vitro [15]) of the same compound?
Answer: 0.058

Question: What about the fraction unbound (in vitro [16]) of the same compound?
Answer: 0.019

Question: What about the fraction unbound (in vitro [17]) of the same compound?
Answer: 0.024

Question: What about the fraction unbound (in vitro [18]) of the same compound?
Answer: 0.075

Question: And the inhibition in vivo at 2 mg/kg (animal or person [19])?
Answer: 67%

Question: What about the inhibition in vivo at 5 mg/kg (animal or person [20]) of the same compound?
Answer: > 100%

Question: What about the inhibition in vivo at 5 mg/kg (animal or person [21]) of the same compound?
Answer: 80%
